# Values quoted from earlier work as cited in US20030109512A1, “Use of 4-androstenediol and 4-androstenediol in a transdermal formulation to increase testosterone levels in humans” (priority 2001, published 2003).
# System: estrogen levels
# Conditions: some studies indicate
smiles,measurement,value
C[C@]12CCC(=O)C=C1CC[C@@H]1[C@@H]2CC[C@]2(C)C(=O)CC[C@@H]12 [androstenedione],effect on estrogen levels,causes elevation of estrogen levels
